Experimental findings from patent US20140024667A1, “FUNGICIDAL COMPOSITIONS” (SYNGENTA CROP PROTECTION LLC, priority 2005, published 2014) are described below.

What all share (format): cell-based
One experiment relates to Fusarium culmorum. Briefly: Fungal growth assay against Fusarium culmorum (Example B-14). From the text: (§1) A synergistic effect exists whenever the action of an active ingredient combination is greater than the sum of the actions of the individual components.
(§2) The action to be expected E for a given active ingredient combination obeys the so-called COLBY formula and can be calculated as follows (COLBY, S. R. “Calculating synergistic and antagonistic responses of herbicide combination”. Weeds, Vol. 15, pages 20-22; 1967):
(§3) ppm=milligrams of active ingredient (=a.i.) per liter of spray mixture X=% action by active ingredient A) using p ppm of active ingredient Y=% action by active ingredient B) using q ppm of active ingredient.
(§4) According to COLBY, the expected (additive) action of active ingredients A)+B) using p+q ppm of active ingredient is
(§5) If the action actually observed (O) is greater than the expected action (E), then the action of the combination is super-additive, i.e. there is a synergistic effect.
(§6) Conidia of the fungus from cryogenic storage are directly mixed into nutrient broth (PDB potato dextrose broth). After placing a (DMSO) solution of the test compounds into a microtiter plate (96-well format) the nutrient broth containing the fungal spores is added. The test plates are incubated at 24 C and the inhibition of growth is determined photometrically after 2 days. The fungicide interactions in the combinations are calculated according to the COLBY method. The data generated in this experiment indicate synergy between cyprodinil and dodine, cyprodinil and fluazinam and cyprodinil and pyribencarb when used in mixture with one another.

Experiment [1] relates to Pseudocercosporella herpotrichoides var. acuformis. Briefly: Fungal growth assay against Pseudocercosporella herpotrichoides var. acuformis (Example B-8).
From the text: as §1, §2, §3, §4, §5
as §6, with “after 3” for “after 2”, “and boscalid,” for “and dodine,”, “and dodine” for “and fluazinam”

In the next experiment the test system is Pyrenophora teres. The experiment can be described thus: Fungal growth assay against Pyrenophora teres (Example B-5 a). Particulars: Cyprodinil/Pyribencarb series.
From the text: as §1, §2, §3, §4, §5
Conidia of the fungus from cryogenic storage are directly mixed into nutrient broth (PDB potato dextrose broth). After placing a (DMSO) solution of the test compounds into a microtiter plate (96-well format) the nutrient broth containing the fungal spores is added. […] The fungicide interactions in the combinations are calculated according to the COLBY method. The data generated in this experiment indicate synergy between cyprodinil and pyribencarb when used in mixture with one another.

The next experiment relates to Botrytis cinerea. The experiment can be described thus: Fungal growth assay against Botrytis cinerea (Example B-1 a).
From the text: as §1, §2, §3, §4, §5
as §6, with “after 3” for “after 2”, “and dodine” for “and dodine, cyprodinil and fluazinam”

Setting [2] is: 0.125 mg/L alone, Cyprodinil/Boscalid series.
[3] abbreviates: 0.125 mg/L alone, Cyprodinil/Dodine series.
Setting [4] is: 0.125 mg/L alone, Cyprodinil/Pyribencarb series.
The mark [5] stands for this setting: 0.25 mg/L alone, Cyprodinil/Boscalid series.
The mark [6] stands for this setting: 0.25 mg/L alone, Cyprodinil/Dodine series.
Setting [7] is: 0.5 mg/L alone, Cyprodinil/Boscalid series.
Where [8] appears, read: 0.5 mg/L alone, Cyprodinil/Dodine series.
Where [9] appears, read: 0.5 mg/L alone, Cyprodinil/Pyribencarb series.
Where [10] appears, read: 1 mg/L alone, Cyprodinil/Dodine series.
The mark [11] stands for this setting: 1 mg/L alone, Cyprodinil/Pyribencarb series.
The mark [12] stands for this setting: 2 mg/L alone, Cyprodinil/Dodine series.
Where [13] appears, read: 2 mg/L alone, Cyprodinil/Pyribencarb series.
The mark [14] stands for this setting: 4 mg/L alone, Cyprodinil/Dodine series.
[15] abbreviates: 4 mg/L alone, Cyprodinil/Pyribencarb series.
[16] abbreviates: 8 mg/L alone, Cyprodinil/Dodine series.
Setting [17] is: 16 mg/L alone, Cyprodinil/Dodine series.
Setting [18] is: 0.25 mg/L alone, Cyprodinil/Pyribencarb series.
Where [19] appears, read: 0.008 mg/L alone, Cyprodinil/Pyribencarb series.
[20] abbreviates: 0.016 mg/L alone, Cyprodinil/Pyribencarb series.
Setting [21] is: 0.031 mg/L alone, Cyprodinil/Pyribencarb series.

As to `O=[N+]([O-])c1cc(C(F)(F)F)c(Cl)c([N+](=O)[O-])c1Nc1ncc(C(F)(F)F)cc1Cl` [Fluazinam], the “Observed control in % (% Cobs)” value was 5.1% in the experiment with Fusarium culmorum (0.063 mg/L alone, Cyprodinil/Fluazinam series); 11.8% with Fusarium culmorum (0.125 mg/L alone, Cyprodinil/Fluazinam series); 27.4% in the experiment with Fusarium culmorum (0.25 mg/L alone, Cyprodinil/Fluazinam series); 35.7% with Fusarium culmorum (0.5 mg/L alone, Cyprodinil/Fluazinam series); 72.4% in the experiment on Fusarium culmorum (1 mg/L alone, Cyprodinil/Fluazinam series).
For `Cc1cc(C2CC2)nc(Nc2ccccc2)n1` [Cyprodinil, (4-cyclopropyl-6-methyl-pyrimidin-2-yl)-phenyl-amine], the “Observed control in % (% Cobs)” value was 23.5% in experiment [1] (0.0625 mg/L alone, Cyprodinil/Boscalid series); 40.7% in experiment [1] (setting [2]); 10.9% in experiment [1] (setting [3]); 16.6% in experiment [1] (setting [4]); 28.9% in experiment [1] (setting [5]); 14.8% in experiment [1] (setting [6]). In addition, the “Observed control in % (% Cobs)” value in experiment [1] (setting [7]) is on record as 19.6%; in experiment [1] (setting [8]), 13.7%; in experiment [1] (setting [9]), 30.1%; in experiment [1] (1 mg/L alone, Cyprodinil/Boscalid series), 17.5%; in experiment [1] (setting [10]) it was 17.9%; in experiment [1] (setting [11]), 19.3%. Moreover, the “Observed control in % (% Cobs)” value in experiment [1] (2 mg/L alone, Cyprodinil/Boscalid series) is recorded as 24.6%; in experiment [1] (setting [12]) it was 20.3%; in experiment [1] (setting [13]), 21.5%; in experiment [1] (4 mg/L alone, Cyprodinil/Boscalid series), 33.6%; in experiment [1] (setting [14]), 25.9%; in experiment [1] (setting [15]) it was 27.2%. The “Observed control in % (% Cobs)” value in experiment [1] (setting [16]) is 33.6%; in experiment [1] (setting [17]) it was 46.2%; with Pyrenophora teres (0.25 mg/L alone) it was 52.0%; with Pyrenophora teres (0.5 mg/L alone), 59.0%; with Botrytis cinerea (setting [4]), 16.7%; with Botrytis cinerea (setting [18]), 22.6%. Also, the “Observed control in % (% Cobs)” value came to 26.7% in the experiment with Botrytis cinerea (setting [8]); 21.4% in the experiment on Botrytis cinerea (setting [9]); 38.2% in the experiment on Botrytis cinerea (setting [10]); 25.7% in the experiment with Botrytis cinerea (setting [11]); 50.5% in the experiment on Botrytis cinerea (setting [12]); 23.2% with Botrytis cinerea (setting [13]). The “Observed control in % (% Cobs)” value in the experiment on Botrytis cinerea (setting [14]) is recorded as 40.1%; in the experiment on Botrytis cinerea (setting [15]), 37.1%; in the experiment with Botrytis cinerea (setting [16]), 51.8%; with Fusarium culmorum (2 mg/L alone, Cyprodinil/Fluazinam series) it was 0%; in the experiment on Fusarium culmorum (setting [14]), 0%; in the experiment with Fusarium culmorum (4 mg/L alone, Cyprodinil/Fluazinam series), 0%. In addition, the “Observed control in % (% Cobs)” value in the experiment with Fusarium culmorum (setting [16]) is given as 0%; with Fusarium culmorum (8 mg/L alone, Cyprodinil/Fluazinam series), 0%; with Fusarium culmorum (8 mg/L alone, Cyprodinil/Pyribencarb series) it was 2.4%; in the experiment on Fusarium culmorum (setting [17]) it was 6.7%; with Fusarium culmorum (16 mg/L alone, Cyprodinil/Fluazinam series), 9.8%; in the experiment with Fusarium culmorum (16 mg/L alone, Cyprodinil/Pyribencarb series), 8.4%. The “Observed control in % (% Cobs)” value with Fusarium culmorum (32 mg/L alone, Cyprodinil/Dodine series) stood at 26.9%; in the experiment on Fusarium culmorum (32 mg/L alone, Cyprodinil/Fluazinam series), 16.4%; in the experiment on Fusarium culmorum (32 mg/L alone, Cyprodinil/Pyribencarb series) it was 21.7%.
Consider `CCCCCCCCCCCCNC(=N)N` [Dodine], for which the “Observed control in % (% Cobs)” value was 0% in experiment [1] (setting [3]); 0% in experiment [1] (setting [6]); 0% in experiment [1] (setting [8]); 0% in experiment [1] (setting [10]); 1.4% in experiment [1] (setting [12]); 31.3% in experiment [1] (setting [14]). Besides, the “Observed control in % (% Cobs)” value in experiment [1] (setting [16]) is on record as 70.5%; in experiment [1] (setting [17]), 72.4%; in the experiment on Botrytis cinerea (setting [14]), 0%; in the experiment on Botrytis cinerea (setting [16]), 0%; in the experiment on Botrytis cinerea (setting [17]), 36.3%; in the experiment on Fusarium culmorum (setting [16]), 3.3%. Besides, the “Observed control in % (% Cobs)” value with Fusarium culmorum (setting [17]) stood at 15.1%.
Take `O=C(Nc1ccccc1-c1ccc(Cl)cc1)c1cccnc1Cl` [Boscalid]: the “Observed control in % (% Cobs)” value in experiment [1] (0.031 mg/L alone, Cyprodinil/Boscalid series) worked out at 0%; in experiment [1] (0.063 mg/L alone, Cyprodinil/Boscalid series) it was 2.5%; in experiment [1] (setting [2]), 32.8%; in experiment [1] (setting [5]), 58.4%; in experiment [1] (setting [7]), 77.1%.
`COC(=O)NCc1cc(/C(C)=N/OCc2cccc(C)n2)ccc1Cl` [Pyribencarb]: the “Observed control in % (% Cobs)” value in experiment [1] (setting [19]) amounted to 16.2%; in experiment [1] (setting [20]) it was 40.1%; in experiment [1] (setting [21]) it was 61.1%; in the experiment on Pyrenophora teres (0.004 mg/L alone), 0%; in the experiment with Pyrenophora teres (0.008 mg/L alone), 0%; in the experiment with Pyrenophora teres (0.016 mg/L alone), 0%. The “Observed control in % (% Cobs)” value is listed as 0% in the experiment with Pyrenophora teres (0.031 mg/L alone); 17.0% in the experiment with Pyrenophora teres (0.063 mg/L alone); 0.4% in the experiment with Botrytis cinerea (setting [19]); 0% in the experiment with Botrytis cinerea (setting [20]); 3.3% with Botrytis cinerea (setting [21]); 2.6% in the experiment with Botrytis cinerea (0.063 mg/L alone, Cyprodinil/Pyribencarb series). Also, the “Observed control in % (% Cobs)” value in the experiment on Botrytis cinerea (setting [4]) stood at 16.4%; in the experiment with Fusarium culmorum (setting [4]), 0%; in the experiment on Fusarium culmorum (setting [18]), 8.7%; with Fusarium culmorum (setting [9]), 11.5%; with Fusarium culmorum (setting [11]), 16.2%.
